Assay results as given in patent US9249102B2 (priority 2012, dated 2016).
Read-outs that look alike come from different tables or passages of the source.

Tests used:
Cooperia oncophora = experiment: Method C: Cooperia oncophora L1 larvae in vitro; conditions: 96 h, read-out: inhibition of motility
Haemonchus contortus [1] = experiment: Method A: Haemonchus contortus L1 larvae, microtitre plate screen; conditions: 96 h, read-out: motility inhibition
Haemonchus contortus [2] = experiment: Method D: Haemonchus contortus in vivo in Mongolian jirds; design: species or system Mongolian jirds (Meriones unguiculatus); conditions: po, 72 h, read-out: reduction in nematode infestation
[3] = test system: microfilaria of Dirofilaria immitis; experiment: Method F: microfilaria of Dirofilaria immitis, survival at 24 hours
[4] = Method G: permeability in the Caco-2/TC7 in vitro model; conditions: human, Caco-2, pH 6.5
[5] = survival of microfilaria at 24 hours

## O=C(CO[C@H]1CC[C@H](Nc2ccc([N+](=O)[O-])c(C(F)(F)F)c2)CC1)N1CCN(CC2Cc3cc(F)ccc3O2)CC1 (stereo partly drawn) [Compound 77]
Cooperia oncophora
  inhibition at 5 µg/mL: ≥ 90%
Haemonchus contortus [1]
  inhibition at 5 µg/mL: ≥ 90%
Haemonchus contortus [2]
  inhibition in vivo at 30 mg/kg: > 90%
[3]; [5]
  EC50: < 5 µg/mL

## O=C(CO[C@H]1CC[C@H](Nc2ccc([N+](=O)[O-])c(C(F)(F)F)c2)CC1)N1CCN(CC2Cc3cc(C(F)(F)F)ccc3O2)CC1 (stereo partly drawn) [Compound 78, 2-[(4-[[4-nitro-3-(trifluoromethyl)phenyl]amino]cyclohexyl)oxy]-1-(4-[[5-(trifluoromethyl)-2,3-dihydro-1-benzofuran-2-yl]methyl]piperazin-1-yl)ethan-1-one]
Cooperia oncophora
  inhibition at 5 µg/mL: ≥ 90%
Haemonchus contortus [1]
  inhibition at 5 µg/mL: ≥ 90%
Haemonchus contortus [2]
  inhibition in vivo at 30 mg/kg: > 90%
[3]; [5]
  EC50: < 5 µg/mL

## O=C(CO[C@H]1CC[C@H](Nc2ccc([N+](=O)[O-])c(C(F)(F)F)c2)CC1)N1CCN(c2ccc3cc(C(F)(F)F)ccc3n2)CC1 [Compound 89, 2-[(4-[[4-nitro-3-(trifluoromethyl)phenyl]amino]cyclohexyl)oxy]-1-[4-[6-(trifluoromethyl)quinolin-2-yl]piperazin-1-yl]ethan-1-one]
Cooperia oncophora
  inhibition at 5 µg/mL: ≥ 90%
Haemonchus contortus [1]
  inhibition at 5 µg/mL: ≥ 90%
Haemonchus contortus [2]
  inhibition in vivo at 30 mg/kg: > 90%
[3]; [5]
  EC50: < 5 µg/mL

## O=C(CO[C@H]1CC[C@H](Nc2ccc([N+](=O)[O-])c(C(F)(F)F)c2)CC1)N1CCN(Cc2cc3cc(Cl)ccc3o2)CC1 [Compound 178, 1-[4-[(5-chloro-1-benzofuran-2-yl)methyl]piperazin-1-yl]-2-[(4-[[4-nitro-3-(trifluoromethyl)phenyl]amino]cyclohexyl)oxy]ethan-1-one]
Cooperia oncophora
  inhibition at 5 µg/mL: ≥ 90%
Haemonchus contortus [1]
  inhibition at 5 µg/mL: ≥ 90%
[4]
  Papp A→B at 20 μM: 4.9 ×10⁻⁶ cm/s
[3]; [5]
  EC50: < 1 µg/mL

## O=C(CO[C@H]1CC[C@H](Nc2ccc([N+](=O)[O-])c(C(F)(F)F)c2)CC1)N1CCN(Cc2cc3cc(C(F)(F)F)ccc3o2)CC1 [Compound 180, 2-[(4-[[4-nitro-3-(trifluoromethyl)phenyl]amino]cyclohexyl)oxy]-1-(4-[[5-(trifluoromethyl)-1-benzofuran-2-yl]methyl]piperazin-1-yl)ethan-1-one]
Cooperia oncophora
  inhibition at 5 µg/mL: ≥ 90%
Haemonchus contortus [1]
  inhibition at 5 µg/mL: ≥ 90%
Haemonchus contortus [2]
  inhibition in vivo at 30 mg/kg: > 90%
[3]; [5]
  EC50: < 1 µg/mL

## O=C(COc1ccc(Nc2ccc([N+](=O)[O-])c(C(F)(F)F)c2)cc1)N1CCN(CC2Cc3cc(C(F)(F)F)ccc3O2)CC1 (stereo not drawn) [Compound 187, 2-(4-[[4-nitro-3-(trifluoromethyl)phenyl]amino]phenoxy)-1-(4-[[5-(trifluoromethyl)-2,3-dihydro-1-benzofuran-2-yl]methyl]piperazin-1-yl)ethan-1-one]
Haemonchus contortus [1]
  inhibition at 5 µg/mL: ≥ 90%
[4]
  Papp A→B at 20 μM: 5.5 ×10⁻⁶ cm/s
[3]; [5]
  EC50: < 1 µg/mL

## O=C(NCCO[C@H]1CC[C@H](Nc2ccc([N+](=O)[O-])c(C(F)(F)F)c2)CC1)C(=O)NCc1cc2cc(Cl)ccc2o1 [Compound 222]
Haemonchus contortus [1]
  inhibition at 5 µg/mL: ≥ 90%
[4]
  Papp A→B at 20 μM: 5 ×10⁻⁶ cm/s
[3]; [5]
  EC50: < 0.1 µg/mL

## O=C(CO[C@H]1CC[C@H](Nc2ccc([N+](=O)[O-])c(C(F)(F)F)c2)CC1)N1CCN(Cc2cc3cc(F)ccc3s2)CC1 [Compound 234, 1-[4-[(5-fluoro-1-benzothiophen-2-yl)methyl]piperazin-1-yl]-2-[[4-[[4-nitro-3-(trifluorometh-yl)phenyl]amino]cyclohexyl]oxy]ethan-1-one]
Cooperia oncophora
  inhibition at 5 µg/mL: ≥ 90%
Haemonchus contortus [1]
  inhibition at 5 µg/mL: ≥ 90%
[4]
  Papp A→B at 20 μM: 4 ×10⁻⁶ cm/s
[3]; [5]
  EC50: < 0.1 µg/mL

## CN(c1ccc([N+](=O)[O-])c(C(F)(F)F)c1)[C@H]1CC[C@H](OCC(=O)N2CCN(Cc3cc4cc(C(F)(F)F)ccc4o3)CC2)CC1 [Compound 256, 2-[[4-[methyl[4-nitro-3-(trifluoromethyl)phenyl]amino]cyclohexyl]oxy]-1-(4-[[5-(trifluorom-ethyl)-1-benzofuran-2-yl]methyl]piperazin-1-yl)ethan-1-one]
Haemonchus contortus [1]
  inhibition at 5 µg/mL: ≥ 90%
[4]
  Papp A→B at 20 μM: 5.4 ×10⁻⁶ cm/s
[3]; [5]
  EC50: < 1 µg/mL

## N#Cc1ccc(N[C@H]2CC[C@H](OCC(=O)N3CCN(Cc4cc5cc(Cl)ccc5o4)CC3)CC2)cc1C(F)(F)F [Compound 274, 2-[(4-[[4-cyano-3-(trifluoromethyl)phenyl]amino]cyclohexyl)-oxy]1-[4-(5-chlorobenzofuran-2-ylmethyl)piperazin-1-yl]ethan-1-one]
Haemonchus contortus [1]
  inhibition at 5 µg/mL: ≥ 90%
[4]
  Papp A→B at 20 μM: 9.2 ×10⁻⁶ cm/s
[3]
  EC50: < 1 µg/mL

## CN(c1ccc(C#N)c(C(F)(F)F)c1)[C@H]1CC[C@H](OCC(=O)N2CCN(c3ccc4cc(C(F)(F)F)ccc4n3)CC2)CC1 [Compound 283, 2-[(4-[methyl[4-cyano-3-(trifluoromethyl)phenyl]amino]cyclohexyl)-oxy]1-[4-[6-(trifluoromethyl)quinolin-2-yl]-piperazin-1-yl]ethan-1-one]
Cooperia oncophora
  inhibition at 5 µg/mL: ≥ 90%
Haemonchus contortus [1]
  inhibition at 5 µg/mL: ≥ 90%
Haemonchus contortus [2]
  inhibition in vivo at 30 mg/kg: > 90%

## O=C(CO[C@H]1CC[C@H](Nc2ccc([N+](=O)[O-])c(C(F)(F)F)c2)CC1)N1CCN(Cc2nc3cc(Cl)ccc3o2)CC1 [Compound 287, 2-[(4-[[4-nitro-3-(trifluoromethyl)phenyl]amino]cyclohexyl)-oxy]1-[4-(5-chlorobenzoxazol-2-ylmethyl)piperazin-1-yl]ethan-1-one]
Haemonchus contortus [1]
  inhibition at 5 µg/mL: ≥ 90%
[4]
  Papp A→B at 20 μM: 11 ×10⁻⁶ cm/s
[3]; [5]
  EC50: < 5 µg/mL

## O=C(CO[C@H]1CC[C@H](Nc2ccc([N+](=O)[O-])c(C(F)(F)F)c2)CC1)N1CCN(Cc2nc3cc(Cl)ccc3s2)CC1 [Compound 291, 1-[4-[(5-chloro-1,3-benzothiazol-2-yl)methyl]piperazin-1-yl]-2-[4-[4-nitro-3-(trifluoromethyl)anilino]cyclohexoxy]ethanone]
Cooperia oncophora
  inhibition at 5 µg/mL: ≥ 90%
Haemonchus contortus [1]
  inhibition at 5 µg/mL: ≥ 90%
[4]
  Papp A→B at 20 μM: 6.2 ×10⁻⁶ cm/s

## N#Cc1ccc(N[C@H]2CC[C@H](OCC(=O)N3CCN(Cc4nc5cc(Cl)ccc5s4)CC3)CC2)cc1C(F)(F)F [Compound 292, 4-[[4-[2-[4-[(5-chloro-1,3-benzothiazol-2-yl)methyl]piperazin-1-yl]-2-oxo-ethoxy]cyclohexyl]amino]-2-(trifluoromethyl)benzonitrile]
Haemonchus contortus [1]
  inhibition at 5 µg/mL: ≥ 90%
[4]
  Papp A→B at 20 μM: 8.3 ×10⁻⁶ cm/s
[3]
  EC50: < 1 µg/mL

## N#Cc1ccc(N[C@H]2CC[C@H](OCC(=O)N3CCN(Cc4nc5cc(F)ccc5s4)CC3)CC2)cc1C(F)(F)F [Compound 294, 4-[[4-[2-[4-[(5-fluoro-1,3-benzothiazol-2-yl)methyl]piperazin-1-yl]-2-oxo-ethoxy]cyclohexyl]amino]-2-(trifluoromethyl)benzonitrile]
Haemonchus contortus [1]
  inhibition at 5 µg/mL: ≥ 90%
[4]
  Papp A→B at 20 μM: 8.2 ×10⁻⁶ cm/s
[3]
  EC50: < 5 µg/mL

## O=C(CO[C@H]1CC[C@H](Nc2ccc([N+](=O)[O-])c(C(F)(F)F)c2)CC1)N1CCN(Cc2ccc3cc(F)ccc3c2)CC1 [Compound 297, 2-[(4-[[4-nitro-3-(trifluoromethyl)phenyl]amino]cyclohexyl)-oxy]1-[4-(6-fluoronaphthalen-2-ylmethyl)piperazin-1-yl]ethan-1-one]
Cooperia oncophora
  inhibition at 5 µg/mL: ≥ 90%
Haemonchus contortus [1]
  inhibition at 5 µg/mL: ≥ 90%
[4]
  Papp A→B at 20 μM: 5.7 ×10⁻⁶ cm/s
[3]; [5]
  EC50: < 1 µg/mL

## N#Cc1ccc(N[C@H]2CC[C@H](OCC(=O)N3CCN(Cc4nc5cc(C(F)(F)F)ccc5s4)CC3)CC2)cc1C(F)(F)F [Compound 301]
Cooperia oncophora
  inhibition at 5 µg/mL: ≥ 90%
Haemonchus contortus [1]
  inhibition at 5 µg/mL: ≥ 90%
[4]
  Papp A→B at 20 μM: 9.9 ×10⁻⁶ cm/s
[3]
  EC50: < 0.1 µg/mL

## CC(c1cc2cc(F)ccc2o1)N1CCN(C(=O)CO[C@H]2CC[C@H](Nc3ccc([N+](=O)[O-])c(C(F)(F)F)c3)CC2)CC1 (stereo partly drawn) [Compound 304, 2-[(4-[[4-nitro-3-(trifluoromethyl)phenyl]amino]cyclohexyl)-oxy]1-[4-[1-(5-fluorobenzofuran-2-yl)ethyl]piperazin-1-yl]ethan-1-one]
Cooperia oncophora
  inhibition at 5 µg/mL: ≥ 90%
Haemonchus contortus [1]
  inhibition at 5 µg/mL: ≥ 90%
[4]
  Papp A→B at 20 μM: 9 ×10⁻⁶ cm/s
[3]; [5]
  EC50: < 5 µg/mL

## N#Cc1ccc(N[C@H]2CC[C@H](OCC(=O)N3CCN(Cc4cc5cc(C(F)(F)F)ccc5o4)CC3)CC2)cc1C(F)(F)F [Compound 306, 4-(4-{2-oxo-2-[4-(5-trifluoromethyl-benzofuran-2-ylmethyl)-piperazin-1-yl]-ethoxy}-cyclohexylamino)-2-trifluoromethyl-benzonitrile]
Haemonchus contortus [1]
  inhibition at 5 µg/mL: ≥ 90%
[4]
  Papp A→B at 20 μM: 9 ×10⁻⁶ cm/s
[3]
  EC50: < 0.1 µg/mL

## O=C(CO[C@H]1CC[C@H](Nc2ccc([N+](=O)[O-])c(C(F)(F)F)c2)CC1)N1CCN(Cc2cc3c(F)c(F)ccc3o2)CC1 [Compound 320, 2-[(4-[[4-nitro-3-(trifluoromethyl)phenyl]amino]cyclohexyl)-oxy]1-[4-(4,5-difluorobenzofuran-2-ylmethyl)piperazin-1-yl]ethan-1-one]
Cooperia oncophora
  inhibition at 5 µg/mL: ≥ 90%
Haemonchus contortus [1]
  inhibition at 5 µg/mL: ≥ 90%
[4]
  Papp A→B at 20 μM: 6.8 ×10⁻⁶ cm/s

## O=C(CO[C@H]1CC[C@H](Nc2ccc([N+](=O)[O-])c(C(F)(F)F)c2)CC1)N1CCN(Cc2ccc3ccc(C(F)(F)F)cc3n2)CC1 [Compound 328, 2-[4-(4-nitro-3-trifluoromethyl-phenylamino)-cyclohexyloxy]-1-[4-(7-trifluoromethyl-quinolin-2-ylmethyl)-piperazin-1-yl]-ethanone]
Cooperia oncophora
  inhibition at 5 µg/mL: ≥ 90%
Haemonchus contortus [1]
  inhibition at 5 µg/mL: ≥ 90%
[4]
  Papp A→B at 20 μM: 7.2 ×10⁻⁶ cm/s

## O=C(CO[C@H]1CC[C@H](Nc2ccc([N+](=O)[O-])c(C(F)(F)F)c2)CC1)N1CCN(c2nc3cc(C(F)(F)F)ccc3s2)CC1 [Compound 342, 2-[4-(4-nitro-3-trifluoromethyl-phenylamino)-cyclohexyloxy]-1-[4-(5-trifluoromethyl-benzothiazol-2-yl)-piperazin-1-yl]-ethanone]
Cooperia oncophora
  inhibition at 5 µg/mL: ≥ 90%
Haemonchus contortus [1]
  inhibition at 5 µg/mL: ≥ 90%
Haemonchus contortus [2]
  inhibition in vivo at 30 mg/kg: > 90%
